Patent US7511040B2, “Imidazopyrazines as protein kinase inhibitors” (Schering Corporation, priority 2006, dated 2009)

Columns and labels:
[1] = biological target: T1, recombinant Aurora A (Homo sapiens, UniProt O14965); experiment: Aurora A enzyme assay (IMAP fluorescence polarization, Tamra-PKAtide substrate); format: biochemical; settings: 8 nM enzyme, 25 μM ATP, 100 nM Tamra-PKAtide, 2 hours at room temperature
T1 construct: purchased Upstate 14-511
T1 sequence (O14965 1-403): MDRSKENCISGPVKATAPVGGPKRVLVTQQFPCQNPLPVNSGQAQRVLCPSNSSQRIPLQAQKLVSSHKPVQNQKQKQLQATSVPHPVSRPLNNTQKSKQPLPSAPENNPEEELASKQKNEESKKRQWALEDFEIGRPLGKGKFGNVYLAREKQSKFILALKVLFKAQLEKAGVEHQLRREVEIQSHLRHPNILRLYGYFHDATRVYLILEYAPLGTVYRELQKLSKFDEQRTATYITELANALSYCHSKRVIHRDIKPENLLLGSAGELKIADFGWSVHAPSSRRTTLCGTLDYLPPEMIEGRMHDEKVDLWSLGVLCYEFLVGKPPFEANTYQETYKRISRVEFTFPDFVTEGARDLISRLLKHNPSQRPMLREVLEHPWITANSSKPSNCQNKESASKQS
Description: (§1) An in vitro assay was developed that utilizes recombinant Aurora A or Aurora B as an enzyme source and a peptide based on PKA as the substrate.
Aurora A kinase assays were performed in low protein binding 384-well plates (Corning Inc). All reagents were thawed on ice. Compounds were diluted in 100% DMSO to desirable concentrations. […] For each reaction, 14 μl containing TAMRA-PKAtide, ATP, DTT and kinase buffer were combined with 1 μl diluted compound. The kinase reaction was started by the addition of 5 μl diluted enzyme. The reaction was allowed to run for 2 hours at room temperature. […] After an additional 2 hours, fluorescent polarization was measured using an Analyst AD (Molecular devices).
(§2) Dose-response curves were plotted from inhibition data generated each in duplicate, from 8 point serial dilutions of inhibitory compounds. Concentration of compound was plotted against kinase activity, calculated by degree of fluorescent polarization. To generate IC50 values, the dose-response curves were then fitted to a standard sigmoidal curve and IC50 values were derived by nonlinear regression analysis.

[2] = biological target: T2, recombinant Aurora B (Homo sapiens, UniProt Q96GD4); experiment: Aurora B enzyme assay (IMAP fluorescence polarization, Tamra-PKAtide substrate); format: biochemical; settings: 26 nM enzyme, 50 μM ATP, 100 nM Tamra-PKAtide, 2 hours at room temperature
T2 construct: purchased Invitrogen pv3970
T2 sequence (Q96GD4 whole entry): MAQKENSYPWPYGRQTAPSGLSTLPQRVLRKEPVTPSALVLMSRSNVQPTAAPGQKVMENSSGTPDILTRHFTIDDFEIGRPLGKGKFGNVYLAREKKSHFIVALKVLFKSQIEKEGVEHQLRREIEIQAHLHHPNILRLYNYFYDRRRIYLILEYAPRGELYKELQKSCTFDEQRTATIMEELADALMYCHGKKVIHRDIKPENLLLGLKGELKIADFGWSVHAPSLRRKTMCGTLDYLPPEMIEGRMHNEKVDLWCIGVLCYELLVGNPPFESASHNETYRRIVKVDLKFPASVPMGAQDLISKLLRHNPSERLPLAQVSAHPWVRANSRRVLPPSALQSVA
Description: as §1
Aurora A kinase assays were performed in low protein binding 384-well plates (Corning Inc). All reagents were thawed on ice. Compounds were diluted in 100% DMSO to desirable concentrations. Each reaction consisted of 26 nM enzyme (Aurora B, Invitrogen cat#pv3970), 100 nM Tamra-PKAtide (Molecular Devices, 5TAMRA-GRTGRRNSICOOH), 50 μM ATP (Roche), 1 mM DTT (Pierce), and kinase buffer (10 mM Tris, 10 mM MgCl2, 0.01% Tween 20). For each reaction, 14 μl containing TAMRA-PKAtide, ATP, DTT and kinase buffer were combined with 1 μl diluted compound. The kinase reaction was started by the addition of 5 μl diluted enzyme. The reaction was allowed to run for 2 hours at room temperature. The reaction was stopped by adding 60 μl IMAP beads (1:400 beads in progressive (94.7% buffer A: 5.3% buffer B) 1× buffer, 24 mM NaCl). After an additional 2 hours, fluorescent polarization was measured using an Analyst AD (Molecular devices).
as §2

Row | IC50 [1] | IC50 [2] | SMILES
1 | 661 nM |  | Cc1cc(Nc2nc(Sc3nc4ccccc4s3)cn3c(-c4cn[nH]c4)cnc23)sn1 [Example 4-1]
2 |  | 11 nM | CSc1cn2c(-c3cn[nH]c3)cnc2c(Nc2cc(C)ns2)n1 [Example 4-3]
3 | 600 nM | 442 nM | Cc1cc(Nc2nc(Sc3ccccc3Cl)cn3c(-c4cn[nH]c4)cnc23)sn1 [Example 4-4]
4 |  | 432 nM | Cc1cc(Nc2nc(Sc3ccccn3)cn3c(-c4cn[nH]c4)cnc23)sn1 [Example 4-5]
5 |  | 15 nM | CNC(=O)CSc1cn2c(-c3cn[nH]c3)cnc2c(Nc2cc(C)ns2)n1 [Example 4-6]
6 | 74 nM | 24 nM | COc1ccccc1Sc1cn2c(-c3cn[nH]c3)cnc2c(Nc2cc(C)ns2)n1 [Example 4-10]
7 | 50 nM | 114 nM | COc1cccc(Sc2cn3c(-c4cn[nH]c4)cnc3c(Nc3cc(C)ns3)n2)c1 [Example 4-11]
8 |  | 24 nM | COc1ccc(Sc2cn3c(-c4cn[nH]c4)cnc3c(Nc3cc(C)ns3)n2)cc1 [Example 4-12]
9 |  | 612 nM | Cc1cc(Nc2nc(Sc3ccc(Cl)cc3)cn3c(-c4cn[nH]c4)cnc23)sn1 [Example 4-13]
10 | 9 nM | 4 nM | CC(=O)Nc1ccc(Sc2cn3c(-c4cn[nH]c4)cnc3c(Nc3cc(C)ns3)n2)cc1 [Example 4-14]
11 |  | 9 nM | Cc1cc(Nc2nc(SCC(C)O)cn3c(-c4cn[nH]c4)cnc23)sn1 (centres unmarked) [Example 4-18]
12 | 25 nM | 67 nM | Cc1cc(Nc2nc(Sc3ccc(NC(=O)C4CC4)cc3)cn3c(-c4cn[nH]c4)cnc23)sn1 [Example 4-19]
13 |  | 10 nM | Cc1cc(Nc2nc(Sc3cccc(Cl)c3)cn3c(-c4cn[nH]c4)cnc23)sn1 [Example 4-20]
14 |  | 285 nM | Cc1cc(Nc2nc(Sc3ccncc3)cn3c(-c4cn[nH]c4)cnc23)sn1 [Example 4-21]
15 |  | 7 nM | Cc1cc(Nc2nc(Sc3nccs3)cn3c(-c4cn[nH]c4)cnc23)sn1 [Example 4-22]
16 |  | 66 nM | Cc1cc(Nc2nc(Sc3ncc[nH]3)cn3c(-c4cn[nH]c4)cnc23)sn1 [Example 4-23]
17 |  | 35 nM | Cc1cc(Nc2nc(Sc3ncn[nH]3)cn3c(-c4cn[nH]c4)cnc23)sn1 [Example 4-24]
18 |  | < 1000 nM | Cc1cc(Nc2nc(SC3CC3)cn3c(-c4cn[nH]c4)cnc23)sn1 [Example 4-25]
19 | > 5000 nM | > 3000 nM | Cc1cc(Nc2nc(SC3CCNC3)cn3c(-c4cnn(C)c4)cnc23)sn1 (centres unmarked) [Example 4-26]
20 | 697 nM | 223 nM | CSc1cn2c(-c3cc[nH]n3)cnc2c(Nc2cc(C)ns2)n1 [Example 4-27]
21 | 16500 nM | > 3000 nM | CSc1cn2c(-c3cc(C4CC4)[nH]n3)cnc2c(Nc2cc(C)ns2)n1 [Example 4-28]
22 | 2530 nM | 1320 nM | CSc1cn2c(-c3ccco3)cnc2c(Nc2cc(C)ns2)n1 [Example 4-30]
23 | 7540 nM | 710 nM | CNc1ncc(-c2cnc3c(Nc4cc(C)ns4)nc(SC)cn23)s1 [Example 4-31]
24 | 14200 nM | > 3000 nM | CSc1cn2c(-c3cccc(C)c3)cnc2c(Nc2cc(C)ns2)n1 [Example 4-32]
